How the values were obtained:
Settings in all cases: 1 µM; inhibitor
CDK3/CycC = CDK3/CycC (Homo sapiens, UniProt Q00526)
IKKb = IKKb (Homo sapiens, UniProt O14920)
MKK7 = MKK7 (Homo sapiens, UniProt O14733)
FGFR2 = FGFR2 (Homo sapiens, UniProt P21802)
STK17A = STK17A (Homo sapiens, UniProt Q9UEE5)
SGK2 = SGK2 (Homo sapiens, UniProt Q9HBY8)
WNK1 = WNK1 (Homo sapiens, UniProt Q9H4A3)
TXK = TXK (Homo sapiens, UniProt P42681)
ACK1 = ACK1 (Homo sapiens, UniProt Q07912)
DNAPK = DNAPK (Homo sapiens, UniProt P78527)
PAK3 = PAK3 (Homo sapiens, UniProt O75914)
EEF2K = EEF2K (Homo sapiens, UniProt O00418)
CDC42BPA = CDC42BPA (Homo sapiens, UniProt Q5VT25)
MAP4K5 = MAP4K5 (Homo sapiens, UniProt Q9Y4K4)
DDR2 = DDR2 (Homo sapiens, UniProt Q16832)
PDGFRb = PDGFRb (Homo sapiens, UniProt P09619)
RIPK4 = RIPK4 (Homo sapiens, UniProt P57078)
MKNK1 = MKNK1 (Homo sapiens, UniProt Q9BUB5)
JNK3 = JNK3 (Homo sapiens, UniProt P53779)
MKNK2 = MKNK2 (Homo sapiens, UniProt Q9HBH9)
VEGFR2 = VEGFR2 (Homo sapiens, UniProt P35968)
CAMK1D = CAMK1D (Homo sapiens, UniProt Q8IU85)
PKCbeta2 = PKCbeta2 (Homo sapiens, UniProt P05771)
STK39 = STK39 (Homo sapiens, UniProt Q9UEW8)
FES = FES (Homo sapiens, UniProt P07332)
LKB1/MO25a/STRADa = LKB1/MO25a/STRADa (Homo sapiens, UniProt Q15831)
CDK8 = CDK8 (Homo sapiens, UniProt P49336)
RPS6KA1 = RPS6KA1 (Homo sapiens, UniProt Q15418)
TGFBR1 = TGFBR1 (Homo sapiens, UniProt P36897)
NEK6 = NEK6 (Homo sapiens, UniProt Q9HC98)
PKN3 = PKN3 (Homo sapiens, UniProt Q6P5Z2)
Chain of PKN3 (Q6P5Z2 whole entry): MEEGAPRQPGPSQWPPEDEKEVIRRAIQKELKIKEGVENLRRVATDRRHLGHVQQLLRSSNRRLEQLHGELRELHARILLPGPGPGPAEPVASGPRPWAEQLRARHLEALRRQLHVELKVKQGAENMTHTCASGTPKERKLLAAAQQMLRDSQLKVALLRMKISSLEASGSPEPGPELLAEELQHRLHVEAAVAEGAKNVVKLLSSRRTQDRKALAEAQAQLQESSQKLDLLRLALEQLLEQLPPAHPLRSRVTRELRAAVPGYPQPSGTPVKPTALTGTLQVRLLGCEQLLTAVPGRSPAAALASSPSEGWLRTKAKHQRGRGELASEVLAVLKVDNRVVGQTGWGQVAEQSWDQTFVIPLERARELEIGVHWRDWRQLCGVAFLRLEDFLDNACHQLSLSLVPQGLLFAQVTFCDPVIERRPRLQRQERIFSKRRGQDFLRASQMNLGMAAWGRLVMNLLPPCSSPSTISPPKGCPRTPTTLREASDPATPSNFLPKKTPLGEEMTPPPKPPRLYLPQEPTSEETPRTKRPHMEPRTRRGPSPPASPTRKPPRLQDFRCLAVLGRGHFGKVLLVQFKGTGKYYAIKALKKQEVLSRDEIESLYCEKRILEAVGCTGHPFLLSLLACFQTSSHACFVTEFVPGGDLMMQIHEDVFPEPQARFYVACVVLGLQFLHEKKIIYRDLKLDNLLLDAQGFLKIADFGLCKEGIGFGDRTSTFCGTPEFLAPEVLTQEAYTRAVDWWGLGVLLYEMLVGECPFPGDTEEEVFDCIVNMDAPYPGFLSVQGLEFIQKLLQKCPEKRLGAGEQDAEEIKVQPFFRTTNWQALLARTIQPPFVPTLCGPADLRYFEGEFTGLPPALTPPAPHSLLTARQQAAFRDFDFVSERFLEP

Chain of PDGFRb (P09619 whole entry): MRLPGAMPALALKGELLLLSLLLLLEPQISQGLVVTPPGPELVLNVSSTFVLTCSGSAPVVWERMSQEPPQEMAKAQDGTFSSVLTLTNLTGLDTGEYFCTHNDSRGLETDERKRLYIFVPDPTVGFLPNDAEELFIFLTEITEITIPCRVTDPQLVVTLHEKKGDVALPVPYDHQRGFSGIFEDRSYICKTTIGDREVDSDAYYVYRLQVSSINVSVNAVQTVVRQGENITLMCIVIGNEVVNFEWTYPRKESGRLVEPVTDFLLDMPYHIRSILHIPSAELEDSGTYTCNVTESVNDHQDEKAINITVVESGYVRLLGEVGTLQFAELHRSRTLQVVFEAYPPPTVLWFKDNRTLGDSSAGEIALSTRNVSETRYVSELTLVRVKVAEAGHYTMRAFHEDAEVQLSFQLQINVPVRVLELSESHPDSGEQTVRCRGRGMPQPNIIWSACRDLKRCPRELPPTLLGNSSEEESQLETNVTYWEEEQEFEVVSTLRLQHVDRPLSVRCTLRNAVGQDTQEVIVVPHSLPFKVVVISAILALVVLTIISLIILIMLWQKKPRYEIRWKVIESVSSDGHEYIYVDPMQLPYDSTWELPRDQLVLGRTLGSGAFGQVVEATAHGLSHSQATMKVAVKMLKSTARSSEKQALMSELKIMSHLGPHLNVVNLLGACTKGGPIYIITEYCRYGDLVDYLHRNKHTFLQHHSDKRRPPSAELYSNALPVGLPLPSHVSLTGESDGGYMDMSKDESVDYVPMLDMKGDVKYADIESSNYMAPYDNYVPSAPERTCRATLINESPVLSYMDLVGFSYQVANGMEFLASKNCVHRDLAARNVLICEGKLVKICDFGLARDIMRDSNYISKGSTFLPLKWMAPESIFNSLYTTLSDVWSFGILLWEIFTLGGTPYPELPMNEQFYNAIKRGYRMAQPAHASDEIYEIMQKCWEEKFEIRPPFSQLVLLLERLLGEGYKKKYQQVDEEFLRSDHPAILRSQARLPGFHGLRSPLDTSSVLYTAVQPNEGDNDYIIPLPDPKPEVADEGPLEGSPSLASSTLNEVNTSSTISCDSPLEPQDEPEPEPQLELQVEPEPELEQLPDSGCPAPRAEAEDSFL
Chain of PKCbeta2 (P05771 whole entry): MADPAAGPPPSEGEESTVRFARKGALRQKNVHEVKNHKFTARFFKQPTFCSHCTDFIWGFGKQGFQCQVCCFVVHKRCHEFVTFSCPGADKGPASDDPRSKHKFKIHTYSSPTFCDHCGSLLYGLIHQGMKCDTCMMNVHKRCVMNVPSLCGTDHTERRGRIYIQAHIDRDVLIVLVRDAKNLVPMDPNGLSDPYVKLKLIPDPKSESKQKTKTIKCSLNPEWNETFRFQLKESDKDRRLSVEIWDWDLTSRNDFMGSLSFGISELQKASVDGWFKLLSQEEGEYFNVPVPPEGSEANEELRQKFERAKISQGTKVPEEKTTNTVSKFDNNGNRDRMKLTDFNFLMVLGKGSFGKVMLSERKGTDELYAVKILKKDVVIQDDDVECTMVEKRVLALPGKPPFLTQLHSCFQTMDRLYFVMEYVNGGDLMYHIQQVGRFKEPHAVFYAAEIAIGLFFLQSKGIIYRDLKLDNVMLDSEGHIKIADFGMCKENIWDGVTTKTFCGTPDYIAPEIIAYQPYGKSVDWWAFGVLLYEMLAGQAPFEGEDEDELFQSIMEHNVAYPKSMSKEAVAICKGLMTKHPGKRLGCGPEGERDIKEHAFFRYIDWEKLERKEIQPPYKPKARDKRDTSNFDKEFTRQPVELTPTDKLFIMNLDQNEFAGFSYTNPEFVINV
Chain of PAK3 (O75914 whole entry): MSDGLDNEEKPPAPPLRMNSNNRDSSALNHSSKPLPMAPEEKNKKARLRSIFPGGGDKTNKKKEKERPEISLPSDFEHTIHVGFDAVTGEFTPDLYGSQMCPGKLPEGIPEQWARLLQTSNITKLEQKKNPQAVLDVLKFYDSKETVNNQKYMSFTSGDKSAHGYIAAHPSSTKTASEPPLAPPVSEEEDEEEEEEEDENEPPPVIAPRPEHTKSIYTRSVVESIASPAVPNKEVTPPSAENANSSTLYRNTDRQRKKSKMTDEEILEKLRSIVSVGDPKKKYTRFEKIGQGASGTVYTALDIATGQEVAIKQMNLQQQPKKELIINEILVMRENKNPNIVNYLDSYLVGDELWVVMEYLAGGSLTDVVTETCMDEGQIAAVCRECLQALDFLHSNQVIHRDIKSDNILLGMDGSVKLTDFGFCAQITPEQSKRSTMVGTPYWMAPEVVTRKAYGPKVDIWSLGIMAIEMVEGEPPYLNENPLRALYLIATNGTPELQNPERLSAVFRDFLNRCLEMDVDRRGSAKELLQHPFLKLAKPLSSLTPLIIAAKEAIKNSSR
Chain of FES (P07332 whole entry): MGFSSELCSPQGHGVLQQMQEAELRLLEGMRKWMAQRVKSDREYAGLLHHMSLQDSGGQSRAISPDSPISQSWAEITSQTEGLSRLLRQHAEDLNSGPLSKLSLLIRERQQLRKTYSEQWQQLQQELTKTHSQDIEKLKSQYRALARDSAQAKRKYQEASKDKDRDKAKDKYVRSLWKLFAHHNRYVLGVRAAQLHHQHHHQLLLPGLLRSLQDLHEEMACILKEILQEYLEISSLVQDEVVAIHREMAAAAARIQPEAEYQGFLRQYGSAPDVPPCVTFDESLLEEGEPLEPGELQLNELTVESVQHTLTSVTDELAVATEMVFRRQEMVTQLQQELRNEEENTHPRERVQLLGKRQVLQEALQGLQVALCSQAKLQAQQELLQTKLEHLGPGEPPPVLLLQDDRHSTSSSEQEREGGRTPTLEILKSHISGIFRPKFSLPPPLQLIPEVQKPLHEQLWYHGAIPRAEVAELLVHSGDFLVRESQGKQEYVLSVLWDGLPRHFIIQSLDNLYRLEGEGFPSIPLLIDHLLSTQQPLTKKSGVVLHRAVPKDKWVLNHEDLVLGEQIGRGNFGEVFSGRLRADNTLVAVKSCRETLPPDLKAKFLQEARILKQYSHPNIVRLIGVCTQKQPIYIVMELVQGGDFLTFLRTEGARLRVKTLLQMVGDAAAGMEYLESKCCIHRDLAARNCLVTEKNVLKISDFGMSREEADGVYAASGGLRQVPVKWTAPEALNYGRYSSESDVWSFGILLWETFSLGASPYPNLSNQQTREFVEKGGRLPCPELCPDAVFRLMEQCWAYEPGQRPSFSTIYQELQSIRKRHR
Chain of JNK3 (P53779 whole entry): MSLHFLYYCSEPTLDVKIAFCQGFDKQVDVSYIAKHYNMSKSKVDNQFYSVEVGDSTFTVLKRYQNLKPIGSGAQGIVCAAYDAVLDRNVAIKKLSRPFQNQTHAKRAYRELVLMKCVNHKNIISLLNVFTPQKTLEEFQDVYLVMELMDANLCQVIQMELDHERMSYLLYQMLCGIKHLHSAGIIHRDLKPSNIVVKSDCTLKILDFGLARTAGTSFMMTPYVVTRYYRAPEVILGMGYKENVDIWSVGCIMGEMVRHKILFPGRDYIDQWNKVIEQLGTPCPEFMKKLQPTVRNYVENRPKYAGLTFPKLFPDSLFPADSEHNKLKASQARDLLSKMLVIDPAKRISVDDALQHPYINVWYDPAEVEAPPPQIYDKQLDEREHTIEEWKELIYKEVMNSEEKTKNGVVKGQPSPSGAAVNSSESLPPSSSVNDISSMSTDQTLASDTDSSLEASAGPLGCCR
Chain of TXK (P42681 whole entry): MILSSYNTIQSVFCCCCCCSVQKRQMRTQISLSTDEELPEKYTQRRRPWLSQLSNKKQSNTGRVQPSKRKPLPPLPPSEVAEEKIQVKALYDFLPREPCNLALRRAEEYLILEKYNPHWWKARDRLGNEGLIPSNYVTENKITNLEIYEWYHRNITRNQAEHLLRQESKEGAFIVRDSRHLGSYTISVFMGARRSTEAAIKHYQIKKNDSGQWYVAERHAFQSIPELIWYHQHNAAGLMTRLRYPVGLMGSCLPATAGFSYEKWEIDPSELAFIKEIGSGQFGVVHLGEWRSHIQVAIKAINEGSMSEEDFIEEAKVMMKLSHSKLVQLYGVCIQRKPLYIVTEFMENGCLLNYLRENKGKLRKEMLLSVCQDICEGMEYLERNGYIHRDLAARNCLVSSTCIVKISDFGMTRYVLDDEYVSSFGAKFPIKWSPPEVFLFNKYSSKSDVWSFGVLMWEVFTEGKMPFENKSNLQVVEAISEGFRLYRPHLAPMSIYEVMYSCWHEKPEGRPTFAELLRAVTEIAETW

## O=C1NCCCCCNc2nc(c3ccccc3n2)Nc2cc1[nH]n2 [21c, (Z)-3^1H-2,5,11-triaza-1(4,2)-quinazolina-3(3,5)-pyrazolacycloundecaphan-4-one]
CDK3/CycC
  21c Remaining activity, percent of control [%]: 87.0%
IKKb
  21c Remaining activity, percent of control [%]: 94.0%
MKK7
  21c Remaining activity, percent of control [%]: 100.3%
FGFR2
  21c Remaining activity, percent of control [%]: 79.5%
STK17A
  21c Remaining activity, percent of control [%]: 103.5%
SGK2
  21c Remaining activity, percent of control [%]: 105.5%
WNK1
  21c Remaining activity, percent of control [%]: 94.9%
TXK
  21c Remaining activity, percent of control [%]: 98.2%
ACK1
  21c Remaining activity, percent of control [%]: 79.8%
DNAPK
  21c Remaining activity, percent of control [%]: 100.7%
PAK3
  21c Remaining activity, percent of control [%]: 103.3%
EEF2K
  21c Remaining activity, percent of control [%]: 114.2%
CDC42BPA
  21c Remaining activity, percent of control [%]: 107.0%
MAP4K5
  21c Remaining activity, percent of control [%]: 78.8%
DDR2
  21c Remaining activity, percent of control [%]: 103.0%
PDGFRb
  21c Remaining activity, percent of control [%]: 71.2%
RIPK4
  21c Remaining activity, percent of control [%]: 101.1%
MKNK1
  21c Remaining activity, percent of control [%]: 97.3%
JNK3
  21c Remaining activity, percent of control [%]: 84.9%
MKNK2
  21c Remaining activity, percent of control [%]: 105.8%
VEGFR2
  21c Remaining activity, percent of control [%]: 90.3%
CAMK1D
  21c Remaining activity, percent of control [%]: 103.0%
PKCbeta2
  21c Remaining activity, percent of control [%]: 100.8%
STK39
  21c Remaining activity, percent of control [%]: 49.5%
FES
  21c Remaining activity, percent of control [%]: 100.7%
LKB1/MO25a/STRADa
  21c Remaining activity, percent of control [%]: 105.1%
CDK8
  21c Remaining activity, percent of control [%]: 88.5%
RPS6KA1
  21c Remaining activity, percent of control [%]: 90.5%
TGFBR1
  21c Remaining activity, percent of control [%]: 124.6%
NEK6
  21c Remaining activity, percent of control [%]: 89.5%
PKN3
  21c Remaining activity, percent of control [%]: 92.6%

— publication doi:10.1101/2023.10.20.563248v1 (biorxiv, 2023)
